Assay results taken from paper PMC9436958, “The synthesis of novel thioderivative chalcones and their influence on NF-κB, STAT3 and NRF2 signaling pathways in colorectal cancer cells” (Scientific Reports, 2022).

How the values were obtained:
Format in all cases: cell-based
NF-κB p65 [1] = experiment: Transcription factor ELISA, NF-κB p65 binding to DNA; details: DLD-1 cells (context); 1, 4 at 1 μM; 2, 8 at 5 μM; vs control
Description: To estimate NF-ΚB (p50 and p65 subunits) STAT3 and Nrf2 activation, enzymatic immunoassays with the Transcription Factor ELISA Kit (TransAM™NF-κB, TransAM™STAT3/TransAM™Nrf2, Active Motif, Carlsbad CA, USA) were used following the manufacturer’s protocol. Briefly, proper consensus-site double-strand oligonucleotides (NF-κB—5′-GGGACTTTCC-3′; STAT3-5’—TTCCCGGAA-3’; Nrf2-5ʹ—[…]-3ʹ) were immobilized on an ELISA plate and incubated for one hour with the nuclear extracts. The activated subunits bound to DNA were recognized with a specific primary antibody and detected with an HRP-conjugated secondary antibody. The number of subunits was determined by spectrophotometry at λ = 450 nm. The number of p50, and p65 subunits, STAT3, as well as the amount of Nrf2 contained in the DNA-binding complex, corresponded to the activated NF-κB, STAT3, or Nrf2 transcription factors.

IKKα/β = experiment: Western blot, IKKα/β protein in cytosolic fraction; details: HCT116 cells; 4 at 1 μM
Description: (§1) Cytosolic and nuclear extracts were prepared using a Nuclear/Cytosol Fractionation Kit (BioVision Research, USA). Cytosolic extracts (for NF-κBp65, NF-κBp50, COX-2, iNOS, STAT3, c-Myc, Bcl-xl, Nrf2, SOD, GSTP, EGFR, Akt, p-Akt, Keap1, IKKα/β and β-actin) or nuclear extracts (for NF-κBp65, NF-κBp50, STAT3, p-STAT3, Nrf2, p-Nrf2 and lamin) were separated on 7.5%, 10% or 12% SDS–PAGE slab gels. Then, the proteins were transferred to a nitrocellulose Immobilon-P membrane. After blocking for 2 h with 10% skimmed milk, proteins were incubated with primary antibodies against NF-κBp65, NF-κBp50, COX-2, iNOS, STAT3, p-STAT3, c-Myc, Bcl-xl, Nrf2, p-Nrf2, SOD, GSTP, EGFR, Akt, p-Akt, Keap1, IKKα/β, β-actin, and lamin. Alkaline phosphatase (AP)-labeled anti-rabbit IgG, anti-goat IgG, and anti-mouse IgG secondary antibodies (Bio-Rad Laboratories, USA), as well as horseradish peroxidase (HRP)-conjugated anti-mouse IgG (Boster Bio, USA) secondary antibodies were used in the staining reaction. Bands were visualized by the AP Conjugate Substrate Kit NBT/BCIP or the chemiluminescent HRP substrate of the Clarity ECL Kit (Bio–Rad Laboratories, USA). The amount of immunoreactive product in each lane was determined using a ChemiDoc Imaging System (Bio–Rad Laboratories, USA). Values were calculated as relative absorbance units (RQ) per mg of protein and expressed as a percentage of the control.

DLD-1 cells [2] = experiment: Wound healing assay (cell migration); details: 24 h, 4 at standard concentration (1 μM), BAY 11-7082 5 µM
Description: Cell migration was assessed by the wound healing assay. DLD-1 cells were seeded into 24-well plates (5 × 10^5 cells per well) and were grown overnight to reach confluency. A scratch was performed using a 10 μl tip, wells were rinsed twice with PBS buffer to remove detached cells, and fresh medium with reduced FBS concentration (0.5%) containing the tested compounds was added. Subsequently, representative microscopic photographs of scratch areas were taken by JuLI FL microscope (NanoEntek, South Korea) direct after the addition of compounds and after 24 h. Area covered by cells (%) was assessed using JuLI FL software and the difference in the coverage of the growth area by DLD-1 cells between 0 and 24 h time points was calculated for each well. The experiment was repeated three times. The relative effect of the tested compounds on cell migration was calculated by comparing the difference in cell coverage area between compound-treated cells and DMSO-vehicle control (tested compound [area 24 h − area 0 h] / DMSO-vehicle control [area 24 h − area 0 h]).

COX-2 = COX-2 expression (qRT-PCR mRNA, Western blot protein); details: 4 at 1 μM
Description: as §1
(§2) Total RNA from cells was isolated with the GeneMatrix Universal DNA/RNA/Protein Purification Kit (EurX, Poland). For the qRT-PCR analyses, the Maxima SYBR Green I/ROX qPCR Master Mix (2×) (Thermo Fisher Scientific, USA) and the thermal cycler LightCycler (Roche, Germany) were used. The protocol started with 5 min of enzyme activation at 95 °C, followed by 40–50 cycles at 95 °C for 15 s, 56 °C for 20 s, 72 °C for 40 s, and final elongation at 72 °C for 5 min. Melting curve analysis was used for amplicon verification. The expression levels of TATA-box-binding protein (TBP) and porphobilinogen deaminase (PBGD) were used to normalize the data. The Pfaffl comparative method was used to calculate fold change. Primers were designed using Beacon Designer software (the sequences of primers used to analyze genes are listed in Table 2 of the supplementary materials).

NF-κB p65 [3] = experiment: Western blot, NF-κB p65 protein level; details: 4 at 1 μM, vs control
Description: as §1

p-Nrf2 = experiment: Western blot, p-Nrf2 protein in nuclear fraction; details: HCT116 line; 5 μM
Description: as §1

GSTP = GSTP expression (qRT-PCR mRNA, Western blot protein); details: DLD-1 cells; 5 at 5 μM
Description: as §1, with “control. […]” for “control.”

SOD = SOD expression (qRT-PCR mRNA, Western blot protein); details: HCT116 cells; 5 μM
Description: as §1
as §2, with “Primers were designed using Beacon Designer software (the sequences of primers used to analyze genes are listed in Table 2 of the supplementary materials).” left out

Nrf2 = experiment: qRT-PCR, Nrf2 mRNA; details: 5 at 5 μM
Description: as §2

NF-κB p65 [4] = experiment: qRT-PCR, NF-κB p65 mRNA; details: DLD-1 cells; 5 μM
Description: as §2

DLD-1 cells [5] = experiment: Cell cycle distribution, PI staining, flow cytometry, DLD-1; details: 48 h, BAY 11-7082 5 µM, 5 in higher (doubled) concentration
Description: The analysis of the cell cycle distribution was performed by propidium iodide (PI) staining. The addition of RNase A improved the specificity of PI binding to DNA. The Muse Cell Cycle Kit (Luminex, USA) and flow cytometric detection were performed with the Muse Cell Analyzer (Merck, Germany), according to the manufacturer’s protocol. Briefly, cells were seeded (2 × 10^5 cells per well) in 6-well plates and on the following day the analyzed compounds were added. Topotecan (Sigma-Aldrich, USA) was used as a positive control of cell cycle arrest. After 48 h cells were collected by trypsinization, fixed in cold 70% ethanol and stored at –20 °C. Then, fixed cells were collected and stained with PI, subjected to 30 min incubation at room temperature in the dark and analyzed by flow cytometry. Three independent experiments were performed. Data were analyzed by Muse 1.5 Analysis Software (Merck, Germany).

SMILES | reduction of the binding of the p65 subunit to DNA (NF-κB p65 [1]) | IKKα/β, cytosolic fraction (IKKα/β) | reduction of cell migration rate (wound healing) vs DMSO-treated cells (DLD-1 cells [2]) | COX-2 protein level (COX-2; DLD-1 cells, cytosolic fraction) | COX-2 transcription (COX-2; DLD-1 cells, 3, 6 at 5 μM) | COX-2 expression, protein level (COX-2; HCT116 cells, 2 at 5 μM) | COX-2 expression, transcript level (COX-2; HCT116 cells, 2 at 5 μM) | decrease of p65 level in the nuclear fraction (NF-κB p65 [3]; DLD-1 cells) | decrease of p65 level in the nuclear fraction (NF-κB p65 [3]; HCT116 cells) | increase in the nuclear level of p-Nrf2 (p-Nrf2) | GSTP expression and protein levels (GSTP) | levels of SOD mRNA and protein (SOD) | increase in Nrf2 transcription (Nrf2; DLD-1 line) | increase in Nrf2 transcription (Nrf2; HCT116 line) | inhibitory effect on p65 subunit transcription (NF-κB p65 [4]) | cell cycle distribution (in words) (DLD-1 cells [5])
COc1cc(C(=O)/C=C/c2cccc(SC)c2)cc(Br)c1OC [chalcone 4] | 21% | inactivation | approximately 15% | reduced COX-2 protein levels | statistically significant reduction | reduction of COX-2 expression | reduction of COX-2 expression | 22% | 26% | – | – | – | – | – | – | –
COc1cc(/C=C/C(=O)c2cc(Br)c(SC)c(OC)c2)ccc1SC [chalcone 5] | – | – | – | – | – | – | – | – | – | 85% | significantly increased GSTP expression and protein levels | increased levels of SOD mRNA and protein | 77% | 45% | most potent inhibitory effect | slightly enriching S phase
